Measurements: ChEMBL document CHEMBL1122718, “Benzylamines: synthesis and evaluation of antimycobacterial properties” (1984)

Key:
Type in all cases: functional
[1] = tested on: Mycobacterium tuberculosis; experiment: Minimum inhibitory concentration (MIC) against Mycobacterium tuberculosis H 37 Ra
[2] = tested on: Mycobacterium tuberculosis; experiment: Compound was evaluated for the minimum inhibitory concentration (MIC) against Mycobacterium tuberculosis H 37 Rv
[3] = tested on: Mycolicibacterium smegmatis; experiment: Minimum inhibitory concentration (MIC) of compound against Mycobacterium smegmatis ATCC 607
[4] = tested on: Mycobacterium tuberculosis; experiment: Minimum inhibitory concentration (MIC) of compound against Mycobacterium tuberculosis H 37 Rv
Mycobacterium marinum = experiment: Minimum inhibitory concentration (MIC) of compound against Mycobacterium marinum SN 1254
Mycobacterium lufu = experiment: Minimum inhibitory concentration (MIC) of compound against Mycobacterium lufu L 209
Mycobacterium avium = experiment: Minimum inhibitory concentration (MIC) of compound against Mycobacterium avium SN 304

Row | SMILES | MIC [1] [µg/mL] | further results
1 | CCCCNCc1cccc(Cl)c1.Cl | 64 | –
2 | CCCNCc1ccc(Cl)c(C(F)(F)F)c1.Cl | > 256 | –
3 | CNCc1cccc(F)c1.Cl | 19.2 | –
4 | CNCc1ccc(C(F)(F)F)cc1.Cl | > 256 | –
5 | Cl.NCc1ccc(Cl)c(Cl)c1 | > 256 | –
6 | CNCc1cccc([N+](=O)[O-])c1.Cl | 256 | –
7 | CCCNCc1cccc(Br)c1.Cl | 51.2 | –
8 | Cl.NCc1cccc(Cl)c1 | 17.9 | –
9 | CC(C)NCc1cccc([N+](=O)[O-])c1.Cl | > 256 | –
10 | CCCNCc1cc(Cl)ccc1Cl.Cl | > 256 | –
11 | CCCCNCc1ccc(Br)cc1.Cl | > 256 | –
12 | CNCc1ccccc1.Cl | 102 | –
13 | CCNCc1cccc(C(F)(F)F)c1.Cl | > 256 | –
14 | CCCCCCCCNCc1ccccc1.Cl [BENZYL(OCTYL)AMINE HYDROCHLORIDE] | > 256 | –
15 | CCCCNCc1cccc(C#N)c1.Cl | 51.2 | –
16 | CNCc1ccc(Cl)c(C(F)(F)F)c1.Cl | > 256 | –
17 | Cl.NCc1cccc([N+](=O)[O-])c1 | 179 | –
18 | CC(C)NCc1cccc(C(F)(F)F)c1.Cl | > 256 | –
19 | Cl.NCc1ccc(Cl)cc1Cl | > 256 | –
20 | COc1ccc(CN)cc1.Cl | > 256 | –
21 | CCNCc1cccc(F)c1.Cl | 51.2 | –
22 | CCNCc1cccc(Cl)c1.Cl | 25.6 | –
23 | Cl.NCc1ccc(Cl)c(C(F)(F)F)c1 | > 256 | –
24 | CCCCNCc1cc(F)cc(Cl)c1.Cl | 19.2 | –

Row | SMILES | MIC [1] [µg/mL] | further results
25 | CCCCCNCc1cccc(Cl)c1.Cl | 51.2 | –
26 | CCCCNCc1cc(Cl)cc([N+](=O)[O-])c1.Cl | 205 | –
27 | CNCc1cccc(C(F)(F)F)c1.Cl | > 256 | –
28 | CCCNCc1cccc(F)c1.Cl | 25.6 | –
29 | CCCCCCNCc1ccccc1.Cl | > 256 | –
30 | CNCc1ccc(Cl)c(Cl)c1.Cl | > 256 | –
31 | CCCCNCc1cc(Cl)cc(Cl)c1.Cl | 64 | –
32 | CNCc1c(Cl)cccc1Cl.Cl | > 256 | –
33 | CCCNCc1cccc(C(F)(F)F)c1.Cl | > 256 | –
34 | CCCNCc1ccc(C(F)(F)F)cc1.Cl | > 256 | –
35 | CCCNCc1ccc(OC)cc1.Cl | > 256 | –
36 | CCCCNCc1ccccc1Br.Cl | > 256 | –
37 | CC(C)NCc1cccc(Cl)c1.Cl | > 256 | –
38 | CCCCNCc1ccc(Cl)c(Cl)c1.Cl | > 256 | –
39 | CCCNCc1cc(Cl)cc(Cl)c1.Cl | 20.4 | –
40 | CCNCc1cccc(I)c1.Cl | > 256 | –
41 | CCCNCc1cccc(Cl)c1.Cl | 17.9 | –
42 | Cl.NCc1cccc(I)c1 | 179 | –
43 | CCNCc1ccc(C(F)(F)F)cc1.Cl | > 256 | –
44 | Cl.NCc1cccc(C(F)(F)F)c1 | > 256 | –
45 | Cl.NCc1cccc(Br)c1 | 32 | –
46 | CNCc1ccc(Br)cc1.Cl | > 256 | –
47 | CCCNCc1c(Cl)cccc1Cl.Cl | > 256 | –
48 | CCCNCc1ccc(Cl)c(Cl)c1.Cl | > 256 | –

Row | SMILES | MIC [1] [µg/mL] | further results
49 | CCNCc1ccccc1Br.Cl | > 256 | –
50 | CNCc1ccc(OC)cc1.Cl | > 256 | –
51 | CCNCc1cc(Cl)cc(Cl)c1.Cl | 17.9 | –
52 | CNCc1ccc(Cl)cc1.Cl | > 256 | –
53 | CCCNCc1cccc(C#N)c1.Cl | 76.8 | –
54 | CCCCCNCc1cc(Cl)cc(Cl)c1.Cl | 128 | –
55 | CCNCc1ccc(Cl)c(C(F)(F)F)c1.Cl | > 256 | –
56 | CCCCCCCNCc1ccccc1.Cl | > 256 | –
57 | CCNCc1c(Cl)cccc1Cl.Cl | > 256 | –
58 | CCNCc1ccccc1.Cl | 205 | –
59 | CCNCc1ccc(Cl)cc1Cl.Cl | > 256 | –
60 | CCCCNCc1cccc(C(F)(F)F)c1.Cl | > 256 | –
61 | CCCNCc1cccc(I)c1.Cl | 256 | –
62 | CCCNCc1ccc(Cl)cc1Cl.Cl | > 256 | –
63 | CCCCNCc1cccc(F)c1.Cl | 25.6 | MIC [2]: 30 µg/mL
64 | Cl.NCc1cc(F)cc(F)c1 | 57.6 | –
65 | CCNCc1cc(Cl)cc([N+](=O)[O-])c1.Cl | 102 | –
66 | CNCc1cccc(C#N)c1.Cl | 51.2 | –
67 | CCCNCc1cc(F)cc(F)c1.Cl | 19.2 | –
68 | CCNCc1cccc([N+](=O)[O-])c1.Cl | > 256 | –
69 | CNCc1ccccc1Cl.Cl | > 256 | –
70 | CCCCNCc1ccc(Cl)cc1.Cl | > 256 | –
71 | Cl.NCc1cc(Cl)cc(Cl)c1 | 20.4 | –
72 | CCCNCc1cc(Cl)cc([N+](=O)[O-])c1.Cl | 102 | –

Row | SMILES | MIC [1] [µg/mL] | further results
73 | CCNCc1cc(F)cc(Cl)c1.Cl | 32 | –
74 | Cl.NCc1cc(F)cc(Cl)c1 | 32 | –
75 | Cl.NCc1cccc(F)c1 | 51.2 | –
76 | Cl.NCc1cc(Cl)ccc1Cl | 76.8 | –
77 | CC(C)NCc1cccc(F)c1.Cl | > 256 | –
78 | CCCCNCc1ccc(Cl)c(C(F)(F)F)c1.Cl | > 256 | –
79 | CCCCNCc1ccc(C(F)(F)F)cc1.Cl | > 256 | –
80 | CNCc1cc(F)cc(Cl)c1.Cl | 19.2 | –
81 | CCCCNCc1cccc([N+](=O)[O-])c1.Cl | > 256 | –
82 | CCCCNCc1ccc(Cl)cc1Cl.Cl | > 256 | –
83 | Cl.NCc1ccccc1 | 76.8 | –
84 | CNCc1ccc(Cl)cc1Cl.Cl | > 256 | –
85 | CCNCc1ccc(Cl)c(Cl)c1.Cl | > 256 | –
86 | CCNCc1cc(F)cc(F)c1.Cl | 44.8 | –
87 | CCCCCNCc1cccc([N+](=O)[O-])c1.Cl | > 256 | –
88 | CCCCCNCc1ccccc1.Cl | 154 | –
89 | CNCc1cc(Cl)cc([N+](=O)[O-])c1.Cl | 128 | –
90 | CCCCCNCc1cccc(C#N)c1.Cl | 76.8 | –
91 | CCCCNCc1cccc(Br)c1.Cl | 38.4 | –
92 | Cl.NCc1ccc(C(F)(F)F)cc1 | > 256 | –
93 | Cl.NCc1c(Cl)cccc1Cl | > 256 | –
94 | CCNCc1cc(Cl)ccc1Cl.Cl | > 256 | –
95 | CCCCNCc1cc(F)cc(F)c1.Cl | 6.4 | MIC [3]: 32 µg/mL; MIC [4]: 4 µg/mL; MIC (Mycobacterium marinum): 6 µg/mL; MIC (Mycobacterium lufu): 8 µg/mL; MIC (Mycobacterium avium): 3 µg/mL
96 | CC(C)NCc1cccc(C#N)c1.Cl | > 256 | –

Row | SMILES | MIC [1] [µg/mL] | further results
97 | CCCCCNCc1cc(F)cc(F)c1.Cl | 32 | –
98 | CCNCc1cccc(Br)c1.Cl | 64 | –
99 | CNCc1cc(Cl)ccc1Cl.Cl | > 256 | –
100 | CCCCNCc1ccccc1Cl.Cl | > 256 | –
101 | CCCCNCc1c(Cl)cccc1Cl.Cl | > 256 | –
102 | CCCCCNCc1cccc(C(F)(F)F)c1.Cl | > 256 | –
103 | CNCc1cc(F)cc(F)c1.Cl | 32 | –
104 | CCNCc1ccc(OC)cc1.Cl | > 256 | –
105 | Cl.N#Cc1cccc(CN)c1 | 128 | –
106 | CNCc1cccc(Br)c1.Cl | 19.2 | –
107 | CCCCNCc1ccccc1.Cl | 51.2 | –
108 | CCCCCNCc1cccc(F)c1.Cl | 51.2 | –
109 | CCCNCc1ccccc1.Cl | 51.2 | –
110 | CCCNCc1cc(F)cc(Cl)c1.Cl | 25.6 | –
111 | CNCc1cccc(I)c1.Cl | 154 | –
112 | CCCCNCc1cc(Cl)ccc1Cl.Cl | > 256 | –
113 | CCCNCc1cccc([N+](=O)[O-])c1.Cl | > 256 | –
114 | CCCCCCCNCc1cc(Cl)cc(Cl)c1.Cl | 154 | –
115 | CCCCNCc1cccc(I)c1.Cl | 205 | –
116 | CCNCc1cccc(C#N)c1.Cl | 102 | –
